Laboratory results from US10100046B2, “Inhibitors of lysine specific demethylase-1” (Celgene Quanticel Research, Inc., priority 2014, dated 2018).

Columns and labels:
[1] = target: full-length human LSD1 (Homo sapiens (Human), UniProt O60341); assay: In Vitro Enzyme Inhibition Assay—LSD-1 (TR-FRET); format: biochemical; conditions: H3K4me1-biotin labeled peptide
Protocol: This assay determines the ability of a test compound to inhibit LSD1 demethylase activity. E. coli expressed full-length human LSD1 (Accession number 060341) was purchased from Active Motif (Cat#31334).
The enzymatic assay of LSD1 activity is based on Time Resolved-Fluorescence Resonance Energy Transfer (TR-FRET) detection. The inhibitory properties of compounds to LSD1 were determined in 384-well plate format under the following reaction conditions: 0.1-0.5 nM LSD1, 50 nM H3K4me1-biotin labeled peptide (Anaspec cat #64355), 2 μM FAD in assay buffer of 50 mM HEPES, pH7.3, 10 mM NaCl, 0.005% Brij35, 0.5 mM TCEP, 0.2 mg/ml BSA. Reaction product was determined quantitatively by TR-FRET after the addition of detection reagent Phycolink Streptavidin-allophycocyanin (Prozyme) and Europium-anti-unmodified histone H3 lysine 4 (H3K4) antibody (PerkinElmer) in the presence of LSD1 inhibitor such as 1.8 mM of Tranylcypromine hydrochloride (2-PCPA) in LANCE detection buffer (PerkinElmer) to final concentration of 12.5 nM and 0.25 nM respectively.
The assay reaction was performed according to the following procedure: 2 μL of the mixture of 150 nM H3K4me1-biotin labeled peptide with 2 μL of 11-point serial diluted test compound in 3% DMSO were added to each well of plate, followed by the addition of 2 μL of 0.3 nM LSD1 and 6 μM of FAD to initiate the reaction. The reaction mixture was then incubated at room temperature for one hour, and terminated by the addition of 6 μL of 1.8 mM 2-PCPA in LANCE detection buffer containing 25 nM Phycolink Streptavidin-allophycocyanin and 0.5 nM Europium-anti-unmodified H3K4 antibody. Enzymatic reaction is terminated within 15 minutes if 0.5 LSD1 enzyme is used in the plate. Plates were read by EnVision Multilabel Reader in TR-FRET mode (excitation at 320 nm, emission at 615 nm and 665 nm) after 1 hour incubation at room temperature. A ratio was calculated (665/615) for each well and fitted to determine inhibition constant (IC50).
The ability of the compounds disclosed herein to inhibit LSD1 activity was quantified and the respective IC50 value was determined. Table 3 provides the IC50 values of various substituted heterocyclic compounds disclosed herein.

[2] = tested on: THP-1 (AML) cells; assay: LSD1 CD11b Cellular Assay (flow cytometry); format: cell-based; conditions: Homo sapiens, 96 h; CD11b expression in THP-1 cells, 4 days
Protocol: To analyze LSD1 inhibitor efficacy in cells, a CD11b flow cytometry assay was performed. LSD1 inhibition induces CD11b expression in THP-1 (AML) cells which can be measured by flow cytometry. […] LSD1 test compounds were serially diluted in DMSO. The dilutions were added to each well accordingly to a final concentration of 0.2% DMSO. The cells were incubated at 37 degrees Celsius in 5% CO2 for 4 days. 250 μL of each well was transferred to a well in a 96 well round bottom plate. The plate was centrifuged at 1200 rpm at 4 degrees Celsius in a Beckman Coulter Alegra 6KR centrifuge for 5 minutes. The media was removed leaving the cells at the bottom of the wells. The cells were washed in 100 μL cold HBSS (Hank's Balanced Salt Solution) plus 2% BSA (Bovine Serum Albumin) solution and centrifuged at 1200 rpm at 4 degrees Celsius for 5 minutes. The wash was removed. […] The cells were centrifuged and washed two times in 100 μl HBSS plus 2% BSA. After the final spin the cells were resuspended in 100 μL HBSS plus 2% BSA containing 1 ug/mL DAPI (4′,6-diamidino-2-phenylindole). The cells were then analyzed by flow cytometry in a BD FACSAria machine. Cells were analyzed for CD11b expression. The percent of CD11b expressing cells for each inhibitor concentration was used to determine an IC50 curve for each compound analyzed.

IC50 [1] [nM] | IC50 [2] [nM] | Compound
≤ 100 | 100 to 1000 | N#Cc1ccc(-c2nc(C(=O)N3CCC[C@@H](N)C3)sc2-c2cnn(CC3CC3)c2)cc1 [Example 22, 4-{2-[(3R)-3-aminopiperidine-1-carbonyl]-5-[1-(cyclopropylmethyl)-1H-pyrazol-4-yl]-1,3-thiazol-4-yl}benzonitrile]
≤ 100 | < 100 | N#Cc1ccc(-c2nc(C(=O)N3CCC[C@@H](N)C3)sc2-c2cnn(CC(F)(F)F)c2)cc1 [Example 21, 4-{2-[(3R)-3-aminopiperidine-1-carbonyl]-5-[1-(2,2,2-trifluoroethyl)-1H-pyrazol-4-yl]-1,3-thiazol-4-yl}benzonitrile]
≤ 100 | < 100 | Cn1cnc2cc(-c3sc(N4CCC(N)CC4)nc3-c3ccc(C#N)cc3)ccc21 [Example 8, 4-[2-(4-aminopiperidin-1-yl)-5-(1-methyl-1H-1,3-benzodiazol-5-yl)-1,3-thiazol-4-yl]benzonitrile]
≤ 100 | < 100 | Cn1ncc2cc(-c3sc(N4CC[C@@H]5CNC[C@@H]5CC4)nc3-c3ccc(C#N)cc3)cnc21 [Example 11, cis-4-(2-{decahydropyrrolo[3,4-d]azepin-6-yl}-5-{1-methyl-1H-pyrazolo[3,4-b]pyridin-5-yl}-1,3-thiazol-4-yl)benzonitrile]
≤ 100 | 100 to 1000 | Cn1ncc2cc(-c3sc(N4CCC5(CCNC5)CC4)nc3-c3ccc(C#N)cc3)ccc21 [Example 5, 4-(2-{2,8-diazaspiro[4.5]decan-8-yl}-5-(1-methyl-1H-indazol-5-yl)-1,3-thiazol-4-yl)benzonitrile]
≤ 100 | 100 to 1000 | COc1ccc(-n2c(-c3ccc(C#N)c(F)c3)nc(N3CCC(N)CC3)cc2=O)cc1F [Example 30, 4-[4-(4-aminopiperidin-1-yl)-1-(3-fluoro-4-methoxyphenyl)-6-oxopyrimidin-2-yl]-2-fluorobenzonitrile]
